Results on 32 compounds are retold here after patent US20240083872A1, “CYCLIC AMINE DERIVATIVES HAVING SEROTONIN RECEPTOR BINDING ACTIVITY” (Shionogi & Co., Ltd., priority 2020, published 2024).

The term Ki denotes the equilibrium dissociation constant of an inhibitor or competing ligand from its target.

Assay [1] deals with human recombinant 5-HT2A receptor (Homo sapiens (Human), UniProt P28223). Put plainly: 5-HT2A receptor binding inhibition test ([3H]-Ketanserin). To be noted: Jump-In HEK cell membrane. Here is the method:
Test Example 1: 5-HT2A Receptor Binding Inhibition Test
(§1) (Each Experimental Condition)
Cell membrane: Jump-In HEK cell membrane (expressing human recombinant 5-HT2A receptor)
(§2) Assay buffer: Tris-HCl 50 mmol/L (pH 7.4) containing NaCl 120 mmol/L, MgCl2.6H2O 1 mmol/L, KCl 5 mmol/L, 0.1% BSA, and CaCl2 2 mmol/L
Radioactive ligand: [^3H]-Ketanserin around Kd value calculated by the following method
(§3) Non-specific ligand: Serotonin HCl
(§4) The Kd value was calculated when the lot of cell membrane was changed. In advance, 0.5 μL of a 1 mmol/L compound for non-specific binding calculation dissolved in DMSO or DMSO was dispensed into a microplate, and the cell membrane was diluted with an Assay buffer. The radioactive ligand solution was serially diluted and the count was confirmed with a liquid scintillator. Assay buffer containing diluted cell membrane was dispensed into a microplate at 50 μL/well. Then, the radioactive ligand solution was dispensed into a microplate at 50 μL/well, and the plate was sealed. It was allowed to stand at room temperature (25° C.) for 1.5 hours. During this period, 50 mmol/L Tris-HCl (pH 7.4) was dispensed into a GF/B UniFilter plate at 50 μL/well and allowed to stand at 4° C. for 1 hour or longer. After that, filtration was performed with Cell harvester (PerkinElmer). The radioactive ligand solution was dispensed into an empty well of the GF/B UniFilter plate at 10 μL/well. After the GF/B UniFilter plate was dried at room temperature, MicroScinti 20 was dispensed into the GF/B UniFilter plate at 50 μL/well, and the plate was sealed. The GF/B UniFilter plate was allowed to stand overnight at room temperature. The radioactivity of [^3H]-Ketanserin bound to the 5-HT2A receptor was measured using Microbeta2 (PerkinElmer) at a measurement time of 1 min/well. The Saturation curve was drawn from the measured value, and the Kd value was calculated from the slope of the Scatchard Plot.
(§5) (Binding Test of the Compound According to the Present Invention)
(§6) In advance, 0.5 μL of the compound solution dissolved in DMSO was dispensed into a microplate, and the cell membrane and the hot ligand were diluted with Assay buffer, respectively. Then, the Assay buffer containing the diluted cell membrane was dispensed into a microplate at 50 μL/well. Then, the radioactive ligand solution was dispensed into a microplate at 50 μL/well, and the plate was sealed. Then, it was allowed to stand at room temperature (25° C.) for 1.5 hours. During this period, 50 mmol/L Tris-HCl (pH 7.4) was dispensed into a GF/B UniFilter plate at 50 μL/well and allowed to stand at 4° C. for 1 hour or longer. After that, filtration was performed with Cell harvester (PerkinElmer). After the GF/B UniFilter plate was dried at room temperature, MicroScinti 20 was dispensed into the GF/B UniFilter plate at 50 μL/well, and the plate was sealed. The GF/B UniFilter plate was allowed to stand overnight at room temperature. The radioactivity of [^3H]-Ketanserin bound to the 5-HT2A receptor was measured using Microbeta2 (PerkinElmer) at a measurement time of 1 min/well. The non-specific binding was calculated from the radioactivity of [^3H]-Ketanserin in the presence of […] Serotonin HCl with the unlabeled ligand, and the total binding was calculated from the radioactivity of [^3H]-Ketanserin in the absence of the compound according to the present invention (Vehicle). Finally, the Ki value was calculated from the dose-response curve.
(§7) (The binding activity of the compound according to the present invention was calculated from the following binding inhibition rate (%).)
(§8) Inhibition rate (%)=[1−(c−a)/(b−a)]×100 • a; mean cpm of non-specific binding • b; mean cpm of total binding • c; cpm in the presence of the test compound

The target of assay [2] is human recombinant 5-HT2C receptor (Homo sapiens (Human), UniProt P28335). Put plainly: 5-HT2C receptor binding inhibition test ([3H]-Mesulergine). As to the method: as §1
Cell membrane: Jump-In HEK cell membrane (expressing human recombinant 5-HT2C receptor)
as §2
Radioactive ligand: [^3H]-Mesulergine around Kd value calculated by the following method
as §3
as §4, with “[…]” for “4°”, “The radioactivity of [^3H]-Ketanserin bound to the 5-HT2A receptor was measured using Microbeta2 (PerkinElmer) at a measurement time of 1 min/well.” left out
as §5
as §6, with “37° C.” for “room temperature (25° C.)”, “2” for “1.5”, “The radioactivity of [^3H]-Ketanserin bound to the 5-HT2A receptor was measured using Microbeta2 (PerkinElmer) at a measurement time of 1 min/well.” left out, “[^3H]-Mesulergine” for “[^3H]-Ketanserin”
as §7, §8

The mark [3] stands for this setting: Jump-In HEK cell membrane, [3H]-Mesulergine, read-out: h-5-HT2C Ki.
The mark [4] stands for this setting: read-out: human serotonin 5-HT2A receptor binding activity, Ki value.
The mark [5] stands for this setting: Jump-In HEK cell membrane, [3H]-Mesulergine, read-out: human serotonin 5-HT2C receptor binding inhibitory activity, Ki value.

Read-outs that look alike come from different tables or passages of the source. Where only a bound is given, the exact number is not on record here.

Sequence of human recombinant 5-HT2C receptor (P28335 33-458): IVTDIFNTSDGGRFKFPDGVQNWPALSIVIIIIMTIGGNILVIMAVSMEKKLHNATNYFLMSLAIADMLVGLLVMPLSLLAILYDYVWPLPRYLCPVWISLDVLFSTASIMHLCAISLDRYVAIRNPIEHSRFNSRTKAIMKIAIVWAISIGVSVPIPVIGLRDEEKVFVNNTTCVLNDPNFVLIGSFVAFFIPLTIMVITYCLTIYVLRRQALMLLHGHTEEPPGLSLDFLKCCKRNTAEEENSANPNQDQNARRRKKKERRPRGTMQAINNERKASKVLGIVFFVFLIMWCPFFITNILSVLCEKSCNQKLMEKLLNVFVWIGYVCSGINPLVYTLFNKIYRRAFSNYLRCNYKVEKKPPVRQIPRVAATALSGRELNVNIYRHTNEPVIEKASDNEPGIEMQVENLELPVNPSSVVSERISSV
Sequence of human recombinant 5-HT2A receptor (P28223 whole entry): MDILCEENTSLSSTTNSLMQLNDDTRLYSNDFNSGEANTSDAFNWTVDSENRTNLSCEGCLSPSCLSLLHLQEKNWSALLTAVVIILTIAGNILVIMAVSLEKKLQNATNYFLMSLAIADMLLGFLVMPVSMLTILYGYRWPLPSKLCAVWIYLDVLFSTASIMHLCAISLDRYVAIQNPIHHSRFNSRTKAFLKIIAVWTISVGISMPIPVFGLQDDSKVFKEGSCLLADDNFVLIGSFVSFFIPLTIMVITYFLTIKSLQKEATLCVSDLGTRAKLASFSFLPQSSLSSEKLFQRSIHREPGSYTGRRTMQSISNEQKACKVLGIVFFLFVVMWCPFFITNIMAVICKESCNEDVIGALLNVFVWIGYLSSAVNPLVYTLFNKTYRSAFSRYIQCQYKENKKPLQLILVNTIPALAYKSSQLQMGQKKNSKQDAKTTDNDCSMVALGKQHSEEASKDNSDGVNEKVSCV

`CCCCOc1ccc(CN(Cc2cnn(C)n2)C(=O)N[C@H]2CCN(C)CC23CC3)cc1F` [Compound I-096]: the Ki in assay [1] (read-out: h-5-HT2A Ki) and in assay [2] (setting [3]) was < 10 nM each time.
For the compound `CCCCOc1ccc(CN(Cc2cnn(C)n2)C(=O)N[C@H]2CCN(C)CC23CC3)c(F)c1` [Compound I-097], the Ki in assay [1] (read-out: h-5-HT2A Ki) and in assay [2] (setting [3]) was < 10 nM throughout.
Take `CCCCOc1ccc(CN(Cc2coc(C)n2)C(=O)CN2CCN(C)CC2)cc1F` [Compound I-126]: the Ki in assay [1] (setting [4]) worked out at 1.24 nM; in assay [2] (setting [5]), 6.25 nM.
Consider `Cc1ccc(CN(Cc2ccc(OCC(C)C)cc2)C(=O)NC2CCN(C)CC2)s1` [Compound I-008], for which the Ki in assay [1] (read-out: h-5-HT2A Ki) and in assay [2] (setting [3]) was < 10 nM in each case.
`Cc1cccnc1CN(Cc1ccc(OCC(C)C)cc1)C(=O)NC1CCN(C)CC1` [Compound I-023]: the Ki was < 10 nM in assay [1] (read-out: h-5-HT2A Ki) and 10 to 100 nM in assay [2] (setting [3]).
On to `CCCCOc1ccc(CN(Cc2coc(C3CC3)n2)C(=O)NC2CCN(C)CC2)cc1` [Compound I-110], for which the Ki was determined as 0.537 nM in assay [1] (setting [4]) and 0.301 nM in assay [2] (setting [5]).
For the compound `CC(C)COc1ccc(CN(Cc2ccccn2)C(=O)NC2CCN(C)CC2)cc1` [Compound I-007], the inhibition constant (Ki) was < 10 nM in assay [1] (read-out: h-5-HT2A Ki) and 10 to 100 nM in assay [2] (setting [3]).
On the same counts, the results for `CC(C)COc1ccc(CN(Cc2cnn(C)c2)C(=O)NC2CCN(C)CC2)cc1` [Compound I-060] are 10 to 100 nM and 10 to 100 nM.
Regarding `CC(C)COc1ccc(CN(Cc2cnccn2)C(=O)NC2CCN(C)CC2)cc1` [Compound I-020], the Ki in assay [1] (read-out: h-5-HT2A Ki) and in assay [2] (setting [3]) was 10 to 100 nM throughout.
Regarding `Cc1nc(CN(Cc2ccc(OCC(F)(F)C(F)(F)F)cc2F)C(=O)NC2CCN(C)CC2)co1` [Compound I-121], the Ki in assay [1] (read-out: h-5-HT2A Ki) and in assay [2] (setting [3]) was < 10 nM throughout.
As for `CC(C)COc1ccc(CN(Cc2nn(C)cc2Cl)C(=O)NC2CCN(C)CC2)cc1` [Compound I-041], the Ki in assay [1] (read-out: h-5-HT2A Ki) and in assay [2] (setting [3]) was 10 to 100 nM throughout.
Turning to `CN1CCC(NC(=O)N(Cc2ccc3c(c2)OCO3)Cc2ccn(C)n2)CC1` [Compound I-026], the values for the Ki in assay [1] (read-out: h-5-HT2A Ki) and in assay [2] (setting [3]) were 10 to 100 nM and 100 to 5000 nM, respectively.
The corresponding values for `CC(C)COc1ccc(CN(Cc2ccc(F)cn2)C(=O)OC2CCN(C)CC2)cc1` [Compound I-093] are < 10 nM and 10 to 100 nM.
As for `CN1CCC(NC(=O)N(Cc2coc(C3CC3)n2)Cc2ccc(OCC(F)(F)F)cc2F)CC1` [Compound I-112], the Ki in assay [1] (read-out: h-5-HT2A Ki) and in assay [2] (setting [3]) was < 10 nM throughout.
In the case of `CC(C)COc1ccc(CN(Cc2cnn(C)n2)C(=O)NC2CCN(C)CC2)c(F)c1` [Compound I-118], the Ki is 1.03 nM in assay [1] (setting [4]) and 0.371 nM in assay [2] (setting [5]).
On to `CC(C)COc1ccc(CN(Cc2ccsc2)C(=O)NC2CCN(C)CC2)cc1` [Compound I-002], for which the Ki in assay [1] (read-out: h-5-HT2A Ki) was < 10 nM; in assay [2] (setting [3]) it was 10 to 100 nM.
Consider `CC(C)COc1ccc(CN(Cc2ccn(C)n2)C(=O)N[C@H]2CCNC[C@H]2F)cc1` [Compound I-048], for which the Ki in assay [1] (read-out: h-5-HT2A Ki) and in assay [2] (setting [3]) was < 10 nM in each case.
Regarding `CC(C)COc1ccc(CN(Cc2ccn(C)n2)C(=O)NC2(C)CCN(C)CC2)cc1` [Compound I-066], the Ki in assay [1] (read-out: h-5-HT2A Ki) fell in the range of 10 to 100 nM; in assay [2] (setting [3]) it was 100 to 5000 nM.
On to `Cc1nc(CN(Cc2ccc(OCC(C)C)cc2)C(=O)N[C@H]2CCNC[C@H]2F)co1` [Compound I-080], for which the Ki in assay [1] (read-out: h-5-HT2A Ki) and in assay [2] (setting [3]) was < 10 nM each time.
In the case of `CC(C)COc1ccc(CN(Cc2ccc(F)cn2)C(=O)NC2CCNCC2)cc1` [Compound I-017], the Ki in assay [1] (read-out: h-5-HT2A Ki) and in assay [2] (setting [3]) was < 10 nM in each case.
On to `CC(C)COc1ccc(CN(Cc2ccc(F)cn2)C(=O)NC2CCN(C)CC23CC3)cc1` (racemic) [Compound I-044], for which the Ki in assay [1] (read-out: h-5-HT2A Ki) and in assay [2] (setting [3]) was < 10 nM throughout.
For `CC(C)COc1ccc(CN(Cc2cocn2)C(=O)NC2CCN(C)CC2)cc1` [Compound I-035], the Ki in assay [1] (read-out: h-5-HT2A Ki) was < 10 nM; in assay [2] (setting [3]), 10 to 100 nM.
With `CC(C)COc1ccc(CN(Cc2ccn(C)n2)C(=O)NC23CCN(CC2)CC3)cc1` [Compound I-068], the inhibitory constant (Ki) was in the range of 10 to 100 nM in assay [1] (read-out: h-5-HT2A Ki) and 100 to 5000 nM in assay [2].
With `CCN1CCC(NC(=O)N(Cc2ccc(OCC(C)C)cc2)Cc2ccn(C)n2)CC1` [Compound I-069], the inhibition constant Ki in assay [1] (read-out: h-5-HT2A Ki) is < 10 nM; in assay [2] (setting [3]), 10 to 100 nM.
The corresponding values for `Cc1cc(CN(Cc2ccc(OCC(C)C)cc2)C(=O)NC2CCN(C)CC2)nn1C` [Compound I-005] are < 10 nM and 10 to 100 nM.
Take `CC(C)COc1ccc(CN(Cc2ccn(C)n2)C(=O)NC2CC3CC2CN3C)cc1` (stereo not shown) [Compound I-061]: the Ki is < 10 nM in assay [1] (read-out: h-5-HT2A Ki) and 10 to 100 nM in assay [2] (setting [3]).
On the same counts, the results for `COc1ccc(CN(Cc2ccc(F)cn2)C(=O)NC2CCN(C)CC2)cc1` [Compound I-042] are < 10 nM and 10 to 100 nM.
On the same counts, the results for `CC(C)COc1ccc(CN(Cc2ccn(C)n2)C(=O)NC2CCN(C)C3(CCC3)C2)cc1` (racemic) [Compound I-067] are < 10 nM and < 10 nM.
Consider `Cc1nc(CN(Cc2ccc(CCC(F)(F)F)cc2F)C(=O)NC2CCN(C)CC2)co1` [Compound I-104], for which the Ki in assay [1] (setting [4]) was determined as 0.952 nM; in assay [2] (setting [5]) it was 0.484 nM.
In the case of `CC(C)COc1ccc(CN(Cc2ccn(C)n2)C(=O)N[C@H]2CCN(C)C[C@@H]2C)cc1` [Compound I-064], the Ki in assay [1] (read-out: h-5-HT2A Ki) and in assay [2] (setting [3]) was < 10 nM in each case.
As to `CC(C)COc1ccc(CN(Cc2ccn(C)n2)C(=O)N[C@H]2C[C@H]3CC[C@@H](C2)N3C)cc1` [Compound I-070], the Ki in assay [1] (read-out: h-5-HT2A Ki) and in assay [2] was 10 to 100 nM in each case.
For `Cc1cc(CN(Cc2ccc(OCC(C)C)cc2)C(=O)NC2CCN(C)CC2)no1` [Compound I-039], the Ki in assay [1] (read-out: h-5-HT2A Ki) and in assay [2] (setting [3]) was 10 to 100 nM throughout.
